In US20260053764A1, “COMPOSITION FOR PREVENTING DETERIORATION IN COGNITIVE FUNCTION AND/OR IMPROVING COGNITIVE FUNCTION” (PHARMA FOODS INTERNATIONAL CO., LTD., priority 2020, published 2026):

Test system: cognitive function of a human
Assay: Cognitrax test in placebo-controlled randomized double-blind clinical tests A and B
Assay type: in vivo
Set-up: Reaction time / Complex attention / Cognitive flexibility / Social acuity / Non-verbal reasoning / Working memory / Continuous attention / Simple attention: scale not given here
Description: A Cognitrax test is known as such an examination that can assess a plurality of domains or items of cognitive function. The Cognitrax test is a cognitive function examination service practiced on the Web based on the cognitive function examination technique developed by CNS Vital Signs in the United States. In the Cognitrax test, among a total of 10 types of tests, which are verbal memory test, visual memory test, finger tapping test, symbol digit coding test (SDC test), Stroop test, shifting attention test, continuous performance test, perception of emotion test, reasoning test and four part continuous performance test, a test is carried out in accordance with the purpose of the examination to digitize the examination result regarding each of a total of 16 types of items at most, which are neurocognition index, composite memory, verbal memory, visual memory, psychomotor speed, reaction time, complex attention, cognitive flexibility, processing speed, executive function, social acuity, non-verbal reasoning, working memory, continuous attention, simple attention and motor speed.
Two types of placebo-controlled randomized double-blind two-group parallel comparison tests were carried out as clinical tests. […] Specifically, capsules comprising 100 mg of dextrin per capsule were used as the placebo food.
The screening examination was carried out to select 60 subjects for each test (a total of 120 subjects). MMSE (Mini Mental State Examination) is an examination for assessing the degree of progression of dementia or the like based on the score thereof with 30 as the perfect score, wherein dementia is suspected with a score of 23 or lower.
• (1) Japanese male and female at the age of 40 or higher • (2) People aware of reduction in cognitive function • (3) People who can continuously ingest the test food every day for 12 weeks • (4) People with an MMSE score of 24 or higher • (5) People who have received sufficient explanation of the purpose/content of the clinical test, have the ability to give consent, voluntarily applied to participate in the clinical test with sufficient understanding, and gave consent to the participation in the clinical test on paper
The total of 120 subjects were randomly divided into test A active group, test A placebo group, test B active group and test B placebo group with 30 subjects in each group. Each subject of the test A active group ingested two capsules of the active food, each subject of the test A placebo group ingested two capsules of the placebo food, each subject of the test B active group ingested one capsule of the active food and each subject of the test B placebo group ingested one capsule of the placebo food.
Each subject followed the schedule shown in the table below and ingested one or two of the assigned capsules together with water for 12 weeks from two weeks after the initial screening examination. All subjects had no particular instruction during the ingestion period and freely took their meals.
As shown with ● in the test schedule in Table 1, Cognitrax was carried out a total of five times, which are upon screening, before starting test food sample ingestion, after four weeks of ingestion, after eight weeks of ingestion and after twelve weeks of ingestion, and the RBANS neuropsychological test was carried out a total of two times, which are before staring test food ingestion and after twelve weeks of ingestion.

[1] = test A 200 mg, before ingestion
[2] = test A 200 mg, before ingestion, mean ± SD
[3] = test A, after eight weeks of ingestion
[4] = test B 100 mg, before ingestion
[5] = test B 100 mg, before ingestion, mean ± SD

## NCCCC(=O)O [GABA, γ-aminobutyric acid]
Test A 200 mg, 4 w
  Cognition flexibility: difference between active food and placebo food groups: 2.1
  Complex attention: difference between active food and placebo food groups: 0.6
  Composite memory: difference between active food and placebo food groups: −0.9
  Continuous attention: difference between active food and placebo food groups: 1.1
  Executive function: difference between active food and placebo food groups: 2.4
  Motor speed: difference between active food and placebo food groups: 6.0
  Non-verbal reasoning: difference between active food and placebo food groups: 4.2
  Processing speed: difference between active food and placebo food groups: 4.1
  Psychomotor speed: difference between active food and placebo food groups: 7.1
  Reaction time: difference between active food and placebo food groups: 5.0
  Simple attention: difference between active food and placebo food groups: 0.9
  Social acuity: difference between active food and placebo food groups: −2.2
  Verbal memory: difference between active food and placebo food groups: 0.2
  Visual memory: difference between active food and placebo food groups: −1.4
  Working memory: difference between active food and placebo food groups: 3.0
Test A 200 mg, 4 w, mean ± SD
  Cognitive flexibility: 104.4 ± 9.8
  Executive function: 104.5 ± 9.8
  Non-verbal reasoning: 102.6 ± 9.1
  Reaction time: 99.3 ± 0.4
  Simple attention: 100.2 ± 10.5
  Social acuity: 93.2 ± 18.9
  Working memory: 108.5 ± 11.2
Test A 200 mg, 8 w
  Cognition flexibility: difference between active food and placebo food groups: 4.6
  Complex attention: difference between active food and placebo food groups: 1.3
  Composite memory: difference between active food and placebo food groups: −2.9
  Continuous attention: difference between active food and placebo food groups: 5.6
  Executive function: difference between active food and placebo food groups: 4.9
  Motor speed: difference between active food and placebo food groups: 3.9
  Non-verbal reasoning: difference between active food and placebo food groups: −2.2
  Processing speed: difference between active food and placebo food groups: 3.5
  Psychomotor speed: difference between active food and placebo food groups: 5.2
  Reaction time: difference between active food and placebo food groups: −0.6
  Simple attention: difference between active food and placebo food groups: −0.3
  Social acuity: difference between active food and placebo food groups: −0.3
  Verbal memory: difference between active food and placebo food groups: −6.3
  Visual memory: difference between active food and placebo food groups: 1.4
  Working memory: difference between active food and placebo food groups: 7.2
Test A 200 mg, 8 w, mean ± SD
  Cognitive flexibility: 108.2 ± 8.6
  Executive function: 108.5 ± 8.6
  Non-verbal reasoning: 104.9 ± 12.5
  Reaction time: 94.0 ± 21.9
  Simple attention: 99.2 ± 14.9
  Social acuity: 91.3 ± 20.8
  Working memory: 113.4 ± 9.7
Test A 200 mg, 12 w
  Cognition flexibility: difference between active food and placebo food groups: 1.4
  Complex attention: difference between active food and placebo food groups: 1.7
  Composite memory: difference between active food and placebo food groups: −5.0
  Continuous attention: difference between active food and placebo food groups: 3.7
  Executive function: difference between active food and placebo food groups: 1.4
  Motor speed: difference between active food and placebo food groups: 6.1
  Non-verbal reasoning: difference between active food and placebo food groups: 6.8
  Processing speed: difference between active food and placebo food groups: 3.1
  Psychomotor speed: difference between active food and placebo food groups: 6.4
  Reaction time: difference between active food and placebo food groups: 5.5
  Simple attention: difference between active food and placebo food groups: 5.5
  Social acuity: difference between active food and placebo food groups: −8.0
  Verbal memory: difference between active food and placebo food groups: −3.1
  Visual memory: difference between active food and placebo food groups: −4.6
  Working memory: difference between active food and placebo food groups: 4.2
Test A 200 mg, 12 w, mean ± SD
  Cognitive flexibility: 107.5 ± 7.3
  Continuous attention: 112.9 ± 8.2
  Reaction time: 100.7 ± 10.4
  Simple attention: 97.9 ± 17.0
  Social acuity: 89.0 ± 23.1
[1]
  Cognition flexibility: difference between active food and placebo food groups: 4.4
  Complex attention: difference between active food and placebo food groups: 3.4
  Composite memory: difference between active food and placebo food groups: 5.6
  Continuous attention: difference between active food and placebo food groups: 3.3
  Executive function: difference between active food and placebo food groups: 4.5
  Motor speed: difference between active food and placebo food groups: 6.7
  Non-verbal reasoning: difference between active food and placebo food groups: 3.7
  Processing speed: difference between active food and placebo food groups: 3.6
  Psychomotor speed: difference between active food and placebo food groups: 7.1
  Reaction time: difference between active food and placebo food groups: 4.5
  Simple attention: difference between active food and placebo food groups: 2.2
  Social acuity: difference between active food and placebo food groups: −6.4
  Verbal memory: difference between active food and placebo food groups: 4.6
  Visual memory: difference between active food and placebo food groups: 4.0
  Working memory: difference between active food and placebo food groups: 3.5
[2]
  Cognitive flexibility: 102.5 ± 9.4
  Complex attention: 105.6 ± 9.8
  Executive function: 102.8 ± 9.0
  Non-verbal reasoning: 102.4 ± 14.9
  Reaction time: 96.6 ± 14.5
  Simple attention: 97.9 ± 17.4
  Social acuity: 87.9 ± 17.9
[3]
  scores regarding continuous attention, GABA group compared to the placebo group: significant improvement
  scores regarding working memory, GABA group compared to the placebo group: significant improvement
Test A, after twelve weeks of ingestion
  scores regarding reasoning, GABA group compared to the placebo group: significant improvement
Test B 100 mg, 4 w
  Cognition flexibility: difference between active food and placebo food groups: −3.6
  Complex attention: difference between active food and placebo food groups: −4.0
  Composite memory: difference between active food and placebo food groups: 7.2
  Continuous attention: difference between active food and placebo food groups: −0.6
  Executive function: difference between active food and placebo food groups: −3.2
  Motor speed: difference between active food and placebo food groups: 6.9
  Non-verbal reasoning: difference between active food and placebo food groups: 0.5
  Processing speed: difference between active food and placebo food groups: 0.8
  Psychomotor speed: difference between active food and placebo food groups: 5.3
  Reaction time: difference between active food and placebo food groups: 0.8
  Simple attention: difference between active food and placebo food groups: −5.8
  Social acuity: difference between active food and placebo food groups: −4.4
  Verbal memory: difference between active food and placebo food groups: 9.1
  Visual memory: difference between active food and placebo food groups: 2.4
  Working memory: difference between active food and placebo food groups: 0.4
Test B 100 mg, 4 w, mean ± SD
  Cognitive flexibility: 105.8 ± 11.3
  Complex attention: 106.3 ± 12.9
  Continuous attention: 111.8 ± 7.2
  Reaction time: 97.8 ± 10.8
  Simple attention: 97.8 ± 25.2
  Social acuity: 90.5 ± 16.7
  Working memory: 110.4 ± 9.3
Test B 100 mg, 8 w
  Cognition flexibility: difference between active food and placebo food groups: −0.5
  Complex attention: difference between active food and placebo food groups: −0.4
  Composite memory: difference between active food and placebo food groups: 7.4
  Continuous attention: difference between active food and placebo food groups: −0.8
  Executive function: difference between active food and placebo food groups: −0.4
  Motor speed: difference between active food and placebo food groups: 7.3
  Non-verbal reasoning: difference between active food and placebo food groups: 0.5
  Processing speed: difference between active food and placebo food groups: 1.5
  Psychomotor speed: difference between active food and placebo food groups: 6.3
  Reaction time: difference between active food and placebo food groups: 1.4
  Simple attention: difference between active food and placebo food groups: 2.8
  Social acuity: difference between active food and placebo food groups: 6.1
  Verbal memory: difference between active food and placebo food groups: 8.8
  Visual memory: difference between active food and placebo food groups: 3.1
  Working memory: difference between active food and placebo food groups: −1.8
Test B 100 mg, 8 w, mean ± SD
  Complex attention: 109.6 ± 10.3
  Continuous attention: 110.2 ± 8.9
  Non-verbal reasoning: 106.2 ± 12.2
  Reaction time: 97.9 ± 10.0
  Simple attention: 101.3 ± 13.0
  Social acuity: 95.4 ± 17.0
  Working memory: 109.8 ± 9.5
Test B 100 mg, 12 w
  Cognition flexibility: difference between active food and placebo food groups: −2.3
  Complex attention: difference between active food and placebo food groups: −2.5
  Composite memory: difference between active food and placebo food groups: 5.5
  Continuous attention: difference between active food and placebo food groups: 0.0
  Executive function: difference between active food and placebo food groups: −2.4
  Motor speed: difference between active food and placebo food groups: 6.5
  Non-verbal reasoning: difference between active food and placebo food groups: 3.9
  Processing speed: difference between active food and placebo food groups: 2.4
  Psychomotor speed: difference between active food and placebo food groups: 5.4
  Reaction time: difference between active food and placebo food groups: −1.7
  Simple attention: difference between active food and placebo food groups: −6.5
  Social acuity: difference between active food and placebo food groups: 4.6
  Verbal memory: difference between active food and placebo food groups: 6.8
  Visual memory: difference between active food and placebo food groups: 2.1
  Working memory: difference between active food and placebo food groups: 0.9
Test B 100 mg, 12 w, mean ± SD
  Complex attention: 109.9 ± 10.1
  Continuous attention: 110.8 ± 13.8
  Motor speed: 108.3 ± 12.9
  Non-verbal reasoning: 107.5 ± 10.6
  Simple attention: 99.2 ± 21.3
  Social acuity: 97.2 ± 17.0
  Working memory: 112.2 ± 7.9
[4]
  Cognition flexibility: difference between active food and placebo food groups: 2.4
  Complex attention: difference between active food and placebo food groups: 3.0
  Composite memory: difference between active food and placebo food groups: 5.2
  Continuous attention: difference between active food and placebo food groups: 1.2
  Executive function: difference between active food and placebo food groups: 2.1
  Motor speed: difference between active food and placebo food groups: 6.4
  Non-verbal reasoning: difference between active food and placebo food groups: 3.1
  Processing speed: difference between active food and placebo food groups: 1.5
  Psychomotor speed: difference between active food and placebo food groups: 4.5
  Reaction time: difference between active food and placebo food groups: 1.9
  Simple attention: difference between active food and placebo food groups: 3.3
  Social acuity: difference between active food and placebo food groups: 0.8
  Verbal memory: difference between active food and placebo food groups: 6.4
  Visual memory: difference between active food and placebo food groups: 2.0
  Working memory: difference between active food and placebo food groups: 2.6
[5]
  Cognitive flexibility: 105.9 ± 10.0
  Continuous attention: 111.6 ± 6.9
  Executive function: 105.5 ± 9.9
  Non-verbal reasoning: 102.6 ± 14.1
  Reaction time: 98.1 ± 9.0
  Simple attention: 101.2 ± 14.9
  Social acuity: 92.6 ± 16.0
  Working memory: 110.5 ± 7.9
Test B, at least after eight weeks of ingestion
  scores regarding motor speed, GABA group compared to the placebo group: significant improvement
